Source: ChEMBL document CHEMBL1201862, “PubChem BioAssay data set” (2004)
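Five concentrations, 48 hours, 96-well plates. Here, GI50 denotes the concentration required for 50% inhibition of growth.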 Activity calls are given as the source filed them. Cut-off read from the data, not from the text of the source: active = GI50 up to about 1.1 µM and inactive = higher.

How the values were obtained:
Assay in all cases: NCI-60 cell line screen, 48 h
XF498 = system: XF498
HOP-18 = system: HOP-18
DLD-1 = system: DLD-1
SNB-78 = system: SNB-78
DMS-114 = system: DMS-114
DMS-273 = system: DMS-273
KM-20L2 = system: KM-20L2
RXF 631 = system: RXF 631
LXFL 529 = system: LXFL 529

## CC(=O)Nc1ccc(C(=O)N2N=C(C)/C(=C\c3c(O)ccc4ccccc34)C2=O)cc1
XF498
  GI50: 28.9 µM (inactive)
HOP-18
  GI50: 83 µM (inactive)
DLD-1
  GI50: 30.4 µM (inactive)
SNB-78
  GI50: > 100 µM (inactive)
DMS-114
  GI50: 54.2 µM (inactive)
DMS-273
  GI50: > 100 µM (inactive)

## O=S(=O)(N/N=C/c1ccc(/C=N/NS(=O)(=O)c2ccccc2)cc1)c1ccccc1
KM-20L2
  GI50: > 100 µM (inactive)
RXF 631
  GI50: 36.4 µM (inactive)
XF498
  GI50: 68.9 µM (inactive)
HOP-18
  GI50: 84.3 µM (inactive)
SNB-78
  GI50: 61.8 µM (inactive)
DMS-114
  GI50: 54.8 µM (inactive)
DMS-273
  GI50: 46.8 µM (inactive)

## Cc1cccc(NC(=O)c2cc3cc(/N=N/c4ccccc4Cl)ccc3oc2=O)c1
KM-20L2
  GI50: > 100 µM (inactive)
RXF 631
  GI50: 25.1 µM (inactive)
XF498
  GI50: 24.2 µM (inactive)
LXFL 529
  GI50: 27.2 µM (inactive)
HOP-18
  GI50: 72.9 µM (inactive)
DLD-1
  GI50: 26.4 µM (inactive)
SNB-78
  GI50: 59.7 µM (inactive)
DMS-114
  GI50: 22.7 µM (inactive)
DMS-273
  GI50: 26.9 µM (inactive)

## O=S1(=O)OCCOS(=O)(=O)C1Cc1ccccc1
KM-20L2
  GI50: 43 µM (inactive)
XF498
  GI50: 19.2 µM (inactive)
HOP-18
  GI50: 23.5 µM (inactive)
DLD-1
  GI50: 43 µM (inactive)
SNB-78
  GI50: > 100 µM (inactive)
DMS-114
  GI50: 38.2 µM (inactive)
DMS-273
  GI50: 45.4 µM (inactive)

## Cc1cc(C)c(C2=NO[C@@H]3C(=O)N(c4ccc(Cc5ccc(N6C(=O)[C@H]7C(c8c(C)cc(C)cc8C)=NO[C@H]7C6=O)cc5)cc4)C(=O)[C@H]23)c(C)c1
KM-20L2
  GI50: > 100 µM (inactive)
XF498
  GI50: > 100 µM (inactive)
LXFL 529
  GI50: > 100 µM (inactive)
HOP-18
  GI50: > 100 µM (inactive)
DLD-1
  GI50: > 100 µM (inactive)
SNB-78
  GI50: > 100 µM (inactive)
DMS-114
  GI50: > 100 µM (inactive)
DMS-273
  GI50: > 100 µM (inactive)

## CCOP(=O)(OCC)C1C(=O)O[C@H]2CCCC[C@@H]12 (stereo partly drawn)
KM-20L2
  GI50: > 100 µM (inactive)
XF498
  GI50: > 100 µM (inactive)
LXFL 529
  GI50: > 100 µM (inactive)
HOP-18
  GI50: 40.6 µM (inactive)
DLD-1
  GI50: > 100 µM (inactive)
SNB-78
  GI50: > 100 µM (inactive)
DMS-114
  GI50: > 100 µM (inactive)
DMS-273
  GI50: > 100 µM (inactive)

## Cc1cc(C)n(-c2c(O)ccc(O)c2-n2nc(C)cc2C)n1
KM-20L2
  GI50: > 100 µM (inactive)
RXF 631
  GI50: > 100 µM (inactive)
XF498
  GI50: > 100 µM (inactive)
LXFL 529
  GI50: > 100 µM (inactive)
DLD-1
  GI50: > 100 µM (inactive)
SNB-78
  GI50: > 100 µM (inactive)
DMS-114
  GI50: > 100 µM (inactive)
DMS-273
  GI50: > 100 µM (inactive)

## CC1=NN(C(=O)Cc2ccccc2)C(=O)/C1=C\c1ccccc1O
KM-20L2
  GI50: > 100 µM (inactive)
XF498
  GI50: > 100 µM (inactive)
LXFL 529
  GI50: > 100 µM (inactive)
DLD-1
  GI50: > 100 µM (inactive)
SNB-78
  GI50: > 100 µM (inactive)
DMS-114
  GI50: > 100 µM (inactive)

## CN1CCCc2nc3ccccc3n2C1
KM-20L2
  GI50: > 100 µM (inactive)
XF498
  GI50: > 100 µM (inactive)
LXFL 529
  GI50: > 100 µM (inactive)
HOP-18
  GI50: > 100 µM (inactive)
DLD-1
  GI50: > 100 µM (inactive)
SNB-78
  GI50: > 100 µM (inactive)
DMS-114
  GI50: > 100 µM (inactive)
DMS-273
  GI50: > 100 µM (inactive)

## Cc1cccc(C)c1NC(=O)C(=O)C(C#N)c1ccccc1 (stereo not drawn)
KM-20L2
  GI50: > 100 µM (inactive)
XF498
  GI50: > 100 µM (inactive)
LXFL 529
  GI50: > 100 µM (inactive)
HOP-18
  GI50: > 100 µM (inactive)
DLD-1
  GI50: > 100 µM (inactive)
SNB-78
  GI50: > 100 µM (inactive)
DMS-114
  GI50: > 100 µM (inactive)
DMS-273
  GI50: > 100 µM (inactive)

## CC1=NC=C(O)c2ccccc2O1
KM-20L2
  GI50: > 100 µM (inactive)
LXFL 529
  GI50: > 100 µM (inactive)
DLD-1
  GI50: > 100 µM (inactive)
SNB-78
  GI50: > 100 µM (inactive)
DMS-114
  GI50: > 100 µM (inactive)
DMS-273
  GI50: > 100 µM (inactive)

## CCOc1ccccc1N1C(=O)C(=O)C(c2nc3ccccc3s2)C(=O)C1=O
KM-20L2
  GI50: > 100 µM (inactive)
XF498
  GI50: > 100 µM (inactive)
LXFL 529
  GI50: 35.5 µM (inactive)
HOP-18
  GI50: 8.22 µM (inactive)
DLD-1
  GI50: > 100 µM (inactive)
SNB-78
  GI50: > 100 µM (inactive)
DMS-114
  GI50: > 100 µM (inactive)
DMS-273
  GI50: > 100 µM (inactive)

## N#C/C(=C\c1ccccc1Br)C(=O)c1ccccc1
KM-20L2
  GI50: > 87.3 µM (inactive)
RXF 631
  GI50: > 100 µM (inactive)
XF498
  GI50: > 50.2 µM (inactive)
LXFL 529
  GI50: 12.3 µM (inactive)
SNB-78
  GI50: 6.67 µM (inactive)
DMS-114
  GI50: 97.1 µM (inactive)
DMS-273
  GI50: 26.8 µM (inactive)

## CC1=CC(N2C(=O)C(C)=CC2O)NC1=O (stereo not drawn)
KM-20L2
  GI50: > 100 µM (inactive)
LXFL 529
  GI50: > 100 µM (inactive)
HOP-18
  GI50: < 0.01 µM (active)
DLD-1
  GI50: > 100 µM (inactive)
SNB-78
  GI50: > 100 µM (inactive)

## Cc1cc(N(CCC#N)CCC#N)ccc1/C=C1/CN(N2C(=O)/C(=C/c3ccc(N(CCC#N)CCC#N)cc3C)N=C2c2ccccc2)C(c2ccccc2)=N1
KM-20L2
  GI50: > 100 µM (inactive)
XF498
  GI50: 36 µM (inactive)
LXFL 529
  GI50: 63.5 µM (inactive)
HOP-18
  GI50: > 100 µM (inactive)
DLD-1
  GI50: > 100 µM (inactive)
SNB-78
  GI50: 32.1 µM (inactive)
DMS-114
  GI50: > 100 µM (inactive)
DMS-273
  GI50: > 100 µM (inactive)

## O=c1/c(=C/c2ccccc2O)sc2nc3ccccc3n12
KM-20L2
  GI50: 84.1 µM (inactive)
RXF 631
  GI50: 43.7 µM (inactive)
LXFL 529
  GI50: 31.3 µM (inactive)
DLD-1
  GI50: 29.9 µM (inactive)
SNB-78
  GI50: 43.2 µM (inactive)
DMS-114
  GI50: 19.7 µM (inactive)
DMS-273
  GI50: 82.4 µM (inactive)

## O=c1nc(/C=C/c2ccccc2Cl)cc2n1CCN2CCO
LXFL 529
  GI50: 55.1 µM (inactive)
DLD-1
  GI50: > 100 µM (inactive)
DMS-114
  GI50: 24.8 µM (inactive)

## CCC(=O)C(C)C(=O)C(=O)C(=O)OC (stereo not drawn)
KM-20L2
  GI50: > 100 µM (inactive)
RXF 631
  GI50: > 100 µM (inactive)
XF498
  GI50: > 100 µM (inactive)
LXFL 529
  GI50: > 100 µM (inactive)
HOP-18
  GI50: > 100 µM (inactive)
DLD-1
  GI50: > 100 µM (inactive)
SNB-78
  GI50: > 100 µM (inactive)
DMS-114
  GI50: > 82.8 µM (inactive)
DMS-273
  GI50: > 100 µM (inactive)

## COc1nc2c(nc(N)n2C2OCC(O)C(O)C2O)c(=O)n1C (stereo not drawn)
KM-20L2
  GI50: > 100 µM (inactive)
XF498
  GI50: 41.8 µM (inactive)
LXFL 529
  GI50: > 100 µM (inactive)
HOP-18
  GI50: > 100 µM (inactive)
DLD-1
  GI50: > 100 µM (inactive)
SNB-78
  GI50: > 100 µM (inactive)
DMS-114
  GI50: > 100 µM (inactive)

## CCCOc1ccc(/C(Cl)=C(\C=O)c2ccc(OC)c(OC)c2)cc1OCCC
KM-20L2
  GI50: 89.7 µM (inactive)
XF498
  GI50: 6.93 µM (inactive)
LXFL 529
  GI50: 5.74 µM (inactive)
HOP-18
  GI50: > 100 µM (inactive)
DLD-1
  GI50: 5.71 µM (inactive)
SNB-78
  GI50: 6.07 µM (inactive)
DMS-114
  GI50: 3.07 µM (inactive)
DMS-273
  GI50: 3.72 µM (inactive)

## COC1C(OC(=O)/C=C/C=C/C=C/C=C/C(=O)O)CCC2(CO2)C1C1(C)OC1CC=C(C)C (stereo not drawn)
KM-20L2
  GI50: 32.1 µM (inactive)
XF498
  GI50: 30.8 µM (inactive)
HOP-18
  GI50: 23.4 µM (inactive)
DLD-1
  GI50: 26.7 µM (inactive)
SNB-78
  GI50: 51.8 µM (inactive)
DMS-114
  GI50: 19.9 µM (inactive)
DMS-273
  GI50: 32.2 µM (inactive)

## Brc1ccc2ns[s+]c2c1
KM-20L2
  GI50: 0.933 µM (active)
RXF 631
  GI50: 5.06 µM (inactive)
XF498
  GI50: > 100 µM (inactive)
LXFL 529
  GI50: 0.404 µM (active)
HOP-18
  GI50: > 47 µM (inactive)
SNB-78
  GI50: > 31.6 µM (inactive)
DMS-114
  GI50: 3.14 µM (inactive)
DMS-273
  GI50: 1.95 µM (inactive)

## CC1=C(N2CC2)C(=O)C(C)=C(N2CC2)C1=O
KM-20L2
  GI50: 0.178 µM (active)
XF498
  GI50: 0.132 µM (active)
LXFL 529
  GI50: 0.2 µM (active)
HOP-18
  GI50: 0.451 µM (active)
DLD-1
  GI50: 0.21 µM (active)
SNB-78
  GI50: 0.836 µM (active)
DMS-114
  GI50: 0.129 µM (active)
DMS-273
  GI50: 0.0692 µM (active)

## Cc1cc(CC(=O)NCCO)n(CCO)c(=O)c1
RXF 631
  GI50: > 100 µM (inactive)
XF498
  GI50: > 100 µM (inactive)
LXFL 529
  GI50: > 100 µM (inactive)
HOP-18
  GI50: > 100 µM (inactive)
DLD-1
  GI50: > 100 µM (inactive)
SNB-78
  GI50: > 100 µM (inactive)
DMS-114
  GI50: > 100 µM (inactive)
DMS-273
  GI50: > 100 µM (inactive)

## Cn1c(=O)nc2n(-c3ccc(F)c(F)c3)c3ccccc3nc-2c1=O
KM-20L2
  GI50: 4.86 µM (inactive)
RXF 631
  GI50: 16.4 µM (inactive)
XF498
  GI50: 21.7 µM (inactive)
LXFL 529
  GI50: 21.3 µM (inactive)
HOP-18
  GI50: 27.5 µM (inactive)
DLD-1
  GI50: 16 µM (inactive)
SNB-78
  GI50: 19.3 µM (inactive)
DMS-114
  GI50: 4.33 µM (inactive)
DMS-273
  GI50: 12.1 µM (inactive)
